ChEMBL document CHEMBL1201862, “PubChem BioAssay data set” (2004)
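The compound was tested at five concentrations on cells cultured in 96-well plates, with a 48-hour exposure period. Here, GI50 denotes the concentration required for 50% inhibition of growth.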 Active and inactive are the calls of the source. Cut-off read from the data, not from the text of the source: active = GI50 up to about 1.1 µM and inactive = higher.

Assays:
Experiment in all cases: inhibition of tumour cell growth, NCI panel, 48 h
A498 = test system: A498
A549 = test system: A549
CAKI-1 = test system: CAKI-1
CCRF-CEM = test system: CCRF-CEM
COLO 205 = test system: COLO 205
DLD-1 = test system: DLD-1
DMS-114 = test system: DMS-114
DMS-273 = test system: DMS-273
EKVX = test system: EKVX
HCC 2998 = test system: HCC 2998
HCT-116 = test system: HCT-116
HCT-15 = test system: HCT-15
HL-60 = test system: HL-60
HOP-18 = test system: HOP-18
HOP-62 = test system: HOP-62
HT-29 = test system: HT-29
IGROV-1 = test system: IGROV-1
K562 = test system: K562
KM-20L2 = test system: KM-20L2
KM12 = test system: KM12
LOX IMVI = test system: LOX IMVI
M19-MEL = test system: M19-MEL
MCF7 = test system: MCF7
MOLT-4 = test system: MOLT-4
NCI-H226 = test system: NCI-H226
NCI-H23 = test system: NCI-H23
NCI-H460 = test system: NCI-H460
NCI-H522 = test system: NCI-H522
NCI/ADR-RES = test system: NCI/ADR-RES
OVCAR-3 = test system: OVCAR-3
OVCAR-4 = test system: OVCAR-4
OVCAR-5 = test system: OVCAR-5
OVCAR-8 = test system: OVCAR-8
RPMI-8226 = test system: RPMI-8226
RXF 393 = test system: RXF 393
SF-268 = test system: SF-268
SF-295 = test system: SF-295
SF-539 = test system: SF-539
SK-MEL-28 = test system: SK-MEL-28
SK-MEL-5 = test system: SK-MEL-5
SN12C = test system: SN12C
SNB-19 = test system: SNB-19
SNB-75 = test system: SNB-75
SNB-78 = test system: SNB-78
SW-620 = test system: SW-620
U-251 = test system: U-251
UACC-257 = test system: UACC-257
UACC-62 = test system: UACC-62
UO-31 = test system: UO-31
XF498 = test system: XF498
786-0 = test system: 786-0
ACHN = test system: ACHN
HOP-92 = test system: HOP-92
LXFL 529 = test system: LXFL 529
M14 = test system: M14
Malme-3M = test system: Malme-3M
SK-OV-3 = test system: SK-OV-3
SR = test system: SR

**Q.** What does the source list for `C=C1CC(OC)(C(O)C(=O)N[C@H]2OCO[C@H]3C2O[C@H](C[C@@H](COC)OC)C(C)(C)C3OC)O[C@H](C)[C@@H]1C` (some centres undefined)?
**A.** GI50 (A498): < 4.82 nM (active); GI50 (A549): < 4.82 nM (active); GI50 (CAKI-1): < 4.82 nM (active); GI50 (CCRF-CEM): < 4.82 nM (active); GI50 (COLO 205): < 4.82 nM (active); GI50 (DLD-1): < 4.82 nM (active); GI50 (DMS-114): < 4.82 nM (active); GI50 (DMS-273): < 4.82 nM (active); GI50 (EKVX): < 4.82 nM (active); GI50 (HCC 2998): < 4.82 nM (active); GI50 (HCT-116): < 4.82 nM (active); GI50 (HCT-15): < 4.82 nM; GI50 (HL-60): < 4.82 nM (active); GI50 (HOP-18): < 4.82 nM (active); GI50 (HOP-62): < 4.82 nM (active); GI50 (HT-29): < 4.82 nM (active); GI50 (IGROV-1): < 4.82 nM (active); GI50 (K562): < 4.82 nM (active); GI50 (KM-20L2): < 4.82 nM (active); GI50 (KM12): < 4.82 nM (active); GI50 (LOX IMVI): < 4.82 nM (active); GI50 (M19-MEL): < 4.82 nM (active); GI50 (MCF7): < 4.82 nM (active); GI50 (MOLT-4): < 4.82 nM (active); GI50 (NCI-H226): < 4.82 nM (active); GI50 (NCI-H23): < 4.82 nM (active); GI50 (NCI-H460): < 4.82 nM (active); GI50 (NCI-H522): < 4.82 nM (active); GI50 (NCI/ADR-RES): < 4.82 nM (active); GI50 (OVCAR-3): < 4.82 nM (active); GI50 (OVCAR-4): < 4.82 nM (active); GI50 (OVCAR-5): < 4.82 nM (active); GI50 (OVCAR-8): < 4.82 nM (active); GI50 (RPMI-8226): < 4.82 nM (active); GI50 (RXF 393): < 4.82 nM (active); GI50 (SF-268): < 4.82 nM (active); GI50 (SF-295): < 4.82 nM (active); GI50 (SF-539): < 4.82 nM (active); GI50 (SK-MEL-28): < 4.82 nM (active); GI50 (SK-MEL-5): < 4.82 nM (active); GI50 (SN12C): < 4.82 nM (active); GI50 (SNB-19): < 4.82 nM (active); GI50 (SNB-75): < 4.82 nM (active); GI50 (SNB-78): < 4.82 nM (active); GI50 (SW-620): < 4.82 nM (active); GI50 (U-251): < 4.82 nM (active); GI50 (UACC-257): < 4.82 nM (active); GI50 (UACC-62): < 4.82 nM (active); GI50 (UO-31): < 4.82 nM (active); GI50 (XF498): < 4.82 nM (active)

**Q.** Which GI50 (786-0) does the source give for `O=C1C2ON3c4ccccc4C(=O)C3(c3ccccc3)C2C(=O)N1c1ccccc1` (centres undefined) here?
**A.** > 100000 nM (inactive)

**Q.** And the GI50 (A498)?
**A.** > 100000 nM (inactive)

**Q.** What about the GI50 (A549) of the same compound?
**A.** > 100000 nM (inactive)

**Q.** And the GI50 (ACHN)?
**A.** > 100000 nM (inactive)

**Q.** And the GI50 (CCRF-CEM)?
**A.** > 100000 nM (inactive)

**Q.** What about the GI50 (COLO 205) of the same compound?
**A.** > 100000 nM (inactive)

**Q.** What about the GI50 (DLD-1) of the same compound?
**A.** > 100000 nM (inactive)

**Q.** And the GI50 (DMS-273)?
**A.** > 100000 nM (inactive)

**Q.** What about the GI50 (EKVX) of the same compound?
**A.** > 100000 nM (inactive)

**Q.** What about the GI50 (HCC 2998) of the same compound?
**A.** > 100000 nM (inactive)

**Q.** And the GI50 (HCT-116)?
**A.** > 100000 nM (inactive)

**Q.** And the GI50 (HCT-15)?
**A.** > 100000 nM

**Q.** And the GI50 (HL-60)?
**A.** > 100000 nM (inactive)

**Q.** What about the GI50 (HOP-18) of the same compound?
**A.** > 100000 nM (inactive)

**Q.** And the GI50 (HOP-62)?
**A.** > 100000 nM (inactive)

**Q.** What about the GI50 (HOP-92) of the same compound?
**A.** > 100000 nM (inactive)

**Q.** And the GI50 (HT-29)?
**A.** > 100000 nM (inactive)

**Q.** What about the GI50 (IGROV-1) of the same compound?
**A.** > 100000 nM (inactive)

**Q.** What about the GI50 (K562) of the same compound?
**A.** > 100000 nM (inactive)

**Q.** And the GI50 (KM-20L2)?
**A.** > 100000 nM (inactive)

**Q.** What about the GI50 (LXFL 529) of the same compound?
**A.** > 100000 nM (inactive)

**Q.** What about the GI50 (M14) of the same compound?
**A.** > 100000 nM (inactive)

**Q.** And the GI50 (M19-MEL)?
**A.** > 100000 nM (inactive)

**Q.** And the GI50 (MOLT-4)?
**A.** > 100000 nM (inactive)

**Q.** And the GI50 (Malme-3M)?
**A.** > 100000 nM (inactive)

**Q.** And the GI50 (NCI-H226)?
**A.** > 100000 nM (inactive)

**Q.** And the GI50 (NCI-H23)?
**A.** > 100000 nM (inactive)

**Q.** What about the GI50 (NCI-H522) of the same compound?
**A.** > 100000 nM (inactive)

**Q.** What about the GI50 (OVCAR-4) of the same compound?
**A.** > 100000 nM (inactive)

**Q.** And the GI50 (OVCAR-8)?
**A.** > 100000 nM (inactive)

**Q.** What about the GI50 (RPMI-8226) of the same compound?
**A.** > 100000 nM (inactive)

**Q.** What about the GI50 (RXF 393) of the same compound?
**A.** > 100000 nM (inactive)

**Q.** And the GI50 (SF-268)?
**A.** > 100000 nM (inactive)

**Q.** What about the GI50 (SF-295) of the same compound?
**A.** > 100000 nM (inactive)

**Q.** And the GI50 (SF-539)?
**A.** > 100000 nM (inactive)

**Q.** And the GI50 (SK-MEL-28)?
**A.** > 100000 nM (inactive)

**Q.** And the GI50 (SK-MEL-5)?
**A.** > 100000 nM (inactive)

**Q.** What about the GI50 (SK-OV-3) of the same compound?
**A.** > 100000 nM (inactive)

**Q.** And the GI50 (SN12C)?
**A.** > 100000 nM (inactive)

**Q.** And the GI50 (SNB-19)?
**A.** > 100000 nM (inactive)

**Q.** And the GI50 (SNB-75)?
**A.** > 100000 nM (inactive)

**Q.** And the GI50 (SNB-78)?
**A.** > 100000 nM (inactive)

**Q.** And the GI50 (SR)?
**A.** > 100000 nM (inactive)

**Q.** And the GI50 (SW-620)?
**A.** > 100000 nM (inactive)

**Q.** What about the GI50 (U-251) of the same compound?
**A.** > 100000 nM (inactive)

**Q.** What about the GI50 (UACC-257) of the same compound?
**A.** > 100000 nM (inactive)

**Q.** What about the GI50 (UACC-62) of the same compound?
**A.** > 100000 nM (inactive)

**Q.** What about the GI50 (UO-31) of the same compound?
**A.** > 100000 nM (inactive)

**Q.** And the GI50 (XF498)?
**A.** > 100000 nM (inactive)
